In ChEMBL document CHEMBL1141321, “Amphidinolides B6 and B7, cytotoxic macrolides from a symbiotic dinoflagellate Amphidinium species” (J Nat Prod, 2007):
Values after ≈ are worked out from the molar mass of the structure shown.

system: DG-75; experiment: Cytotoxicity against human DG75 cells; format: functional, cell-based

Compound	IC50
C=C1/C=C(\C)[C@@H](C)C[C@H](O)CC(=O)[C@H](O)[C@@H](O)[C@H](C)C[C@H](CO)OC(=O)/C(C)=C/CC/C=C/[C@@H]2O[C@H]2C[C@H](C)C1 [AMPHIDINOLIDE H]	0.001 µg/mL (≈ 0.00178 µM)
C=C1/C=C(\C)[C@@H](C)C[C@H](O)CC(=O)[C@H](O)[C@@H](O)[C@H](C)C[C@H](C)OC(=O)[C@@H](C)[C@@H](O)CCCC[C@@H]2O[C@H]2C[C@H](C)C1 [AMPHIDINOLIDE B6]	0.02 µg/mL (≈ 0.0353 µM)
C=C1/C=C(\C)[C@@H](C)C[C@H](O)CC(=O)[C@H](O)[C@@H](O)[C@H](C)C[C@H](C)OC(=O)/C(C)=C/CC/C=C/[C@@H]2O[C@H]2C[C@H](C)C1 [AMPHIDINOLIDE B7]	0.4 µg/mL (≈ 0.732 µM)
